From PubChem BioAssay (NCI)
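Cells were grown in 96-well plates and exposed to each compound for 48 hours at five concentrations; endpoints were interpolated linearly between bracketing concentrations, or set to the highest concentration if not reached. GI50 is the concentration that inhibits growth by half. TGI: concentration producing complete growth inhibition.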

How the values were obtained:
Test in all cases: growth of human tumour cells (NCI), 48 h
[1] = tested on: 786-0 renal
[2] = tested on: A498 renal
[3] = tested on: A549 NSCLC
[4] = tested on: ACHN renal
[5] = tested on: BT-549 breast
[6] = tested on: CAKI-1 renal
[7] = tested on: CCRF-CEM leukemia
[8] = tested on: COLO 205 colon
[9] = tested on: DU-145 prostate
[10] = tested on: EKVX NSCLC
[11] = tested on: HCC-2998 colon
[12] = tested on: HCT-116 colon
[13] = tested on: HCT-15 colon
[14] = tested on: HL-60(TB) leukemia
[15] = tested on: HOP-62 NSCLC
[16] = tested on: HOP-92 NSCLC
[17] = tested on: HS 578T breast
[18] = tested on: HT29 colon
[19] = tested on: IGROV1 ovarian
[20] = tested on: K-562 leukemia
[21] = tested on: KM12 colon
[22] = tested on: LOX IMVI melanoma
[23] = tested on: M14 melanoma
[24] = tested on: MALME-3M melanoma
[25] = tested on: MCF7 breast
[26] = tested on: MDA-MB-231 breast
[27] = tested on: MDA-MB-435
[28] = tested on: MOLT-4 leukemia
[29] = tested on: NCI-H226 lung
[30] = tested on: NCI-H23 lung
[31] = tested on: NCI-H460 lung
[32] = tested on: NCI-H522 lung
[33] = tested on: OVCAR-3 ovarian
[34] = tested on: OVCAR-4 ovarian
[35] = tested on: OVCAR-5 ovarian
[36] = tested on: OVCAR-8 ovarian
[37] = tested on: PC-3 prostate
[38] = tested on: RPMI-8226 leukemia
[39] = tested on: RXF 393 renal
[40] = tested on: SF-268 CNS
[41] = tested on: SF-295 CNS
[42] = tested on: SF-539 CNS
[43] = tested on: SK-MEL-2 melanoma
[44] = tested on: SK-MEL-28 melanoma
[45] = tested on: SK-MEL-5 melanoma
[46] = tested on: SK-OV-3 ovarian
[47] = tested on: SN12C renal
[48] = tested on: SNB-19 CNS
[49] = tested on: SR leukemia
[50] = tested on: SW-620 colon
[51] = tested on: T-47D breast
[52] = tested on: TK-10 renal
[53] = tested on: U251 CNS
[54] = tested on: UACC-257 melanoma
[55] = tested on: UACC-62 melanoma
[56] = tested on: UO-31 renal

COc1cc(-n2cncc2-c2ccc3ccccc3c2)cc(OC)c1OC
GI50 [1]: 49.6 nM
TGI [1]: 18500 nM
GI50 [2]: < 10 nM
TGI [2]: 1410 nM
GI50 [3]: 26.9 nM
TGI [3]: > 100000 nM
TGI [4]: > 57200 nM
GI50 [5]: 62.1 nM
TGI [5]: > 100000 nM
GI50 [6]: 37 nM
TGI [6]: > 100000 nM
GI50 [7]: 34.4 nM
TGI [7]: > 100000 nM
GI50 [8]: < 10 nM
TGI [8]: 391 nM
GI50 [9]: 32.4 nM
TGI [9]: > 100000 nM
GI50 [10]: 65.7 nM
TGI [10]: > 100000 nM
GI50 [11]: < 11.6 nM
TGI [11]: 29.7 nM
GI50 [12]: < 18.1 nM
TGI [12]: > 34600 nM
GI50 [13]: < 16.9 nM
TGI [13]: > 53200 nM
GI50 [14]: < 10 nM
TGI [14]: 1540 nM
GI50 [15]: 39.1 nM
TGI [15]: 25100 nM
GI50 [16]: 957 nM
TGI [16]: > 100000 nM
GI50 [17]: < 12.7 nM
TGI [17]: > 100000 nM
GI50 [18]: < 14.4 nM
TGI [18]: > 70600 nM
GI50 [19]: 87.2 nM
TGI [19]: > 38000 nM
GI50 [20]: < 10 nM
TGI [20]: > 83400 nM
GI50 [21]: < 10 nM
TGI [21]: > 100000 nM
GI50 [22]: 87.2 nM
TGI [22]: > 41800 nM
GI50 [23]: 17.1 nM
TGI [23]: 5620 nM
GI50 [24]: > 100000 nM
TGI [24]: > 100000 nM
GI50 [25]: < 10 nM
TGI [25]: > 100000 nM
GI50 [26]: 59.5 nM
TGI [26]: > 57600 nM
GI50 [27]: < 10 nM
TGI [27]: > 100000 nM
GI50 [28]: 53.8 nM
TGI [28]: > 66900 nM
GI50 [29]: 2030 nM
TGI [29]: > 62000 nM
GI50 [30]: 25.5 nM
TGI [30]: 5910 nM
GI50 [31]: < 17.9 nM
TGI [31]: > 100000 nM
GI50 [32]: < 10 nM
GI50 [33]: < 17.9 nM
TGI [33]: > 100000 nM
TGI [34]: > 100000 nM
GI50 [35]: 48.4 nM
TGI [35]: 53400 nM
GI50 [36]: 54.6 nM
TGI [36]: > 100000 nM
GI50 [37]: 15.8 nM
TGI [37]: > 100000 nM
GI50 [38]: 54.3 nM
TGI [38]: > 100000 nM
GI50 [39]: 19.9 nM
TGI [39]: 28900 nM
GI50 [40]: 26 nM
TGI [40]: > 59000 nM
GI50 [41]: < 10 nM
TGI [41]: > 100000 nM
GI50 [42]: 18.4 nM
TGI [42]: 73400 nM
GI50 [43]: 30.9 nM
TGI [43]: 51800 nM
TGI [44]: > 100000 nM
GI50 [45]: < 10 nM
GI50 [46]: 51.8 nM
TGI [46]: > 69400 nM
GI50 [47]: 1050 nM
TGI [47]: > 100000 nM
GI50 [48]: 23.4 nM
TGI [48]: > 100000 nM
GI50 [49]: < 10 nM
TGI [49]: 10400 nM
GI50 [50]: < 15.9 nM
TGI [50]: > 100000 nM
GI50 [51]: > 100000 nM
TGI [51]: > 100000 nM
GI50 [52]: 33800 nM
TGI [52]: > 100000 nM
GI50 [53]: 23 nM
TGI [53]: 16700 nM
GI50 [54]: > 87000 nM
TGI [54]: > 100000 nM
TGI [55]: > 54500 nM
GI50 [56]: 401 nM
TGI [56]: > 100000 nM
